Here are results for one compound from patent US20250100977A1, “MERCAPTOPYRIMIDINE COMPOUNDS THAT INHIBIT NONHOMOLOGOUS END JOINING AND METHODS THEREOF” (INDIAN INSTITUTE OF SCIENCE, priority 2021, published 2025).

Read-outs that look alike come from different tables or passages of the source. A value given as a limit tells only on which side of the number the result lay.

Series [1] deals with cancer cell lines, particularly leukemia. The note with it: background statement; cited from earlier work.
Series [2] can be described thus: Bioavailability in mice serum by HPLC. The note with it: intraperitoneal, 20 mg/kg body weight.
Description: The bioavailability of the compounds of the present disclosure were analysed in mice serum at different time points (0.5, 1, 2, 4, 6, 8, 10, 12, 24 and 48 h) by HPLC at 232 nm wavelength (FIGS. 10N-P).
In series [3] the test system is HeLa. The series can be described thus: Cytotoxicity (viable cells) in HeLa. Format: cell-based. The note with it: Table 2; read-out: IC50 in cancer cell lines, HeLa. The method, then: (§1) The compounds of the present invention were screened initially in leukemic and cervical cancer cell lines (Table 1). […] In cervical cancer cell line HeLa, IC50 was 5 and 2 μM, respectively for SCR116 and SCR132 (FIG. 5A-B).
(§2) Ligase IV specificity of the compounds of the present invention inside the cells were also determined using Ligase IV knock out (KO) cell line N114 compared to the wild type Nalm6 (Table 2, FIGS. 5C, D, E and F). […] Table 1 showing IC50 of SCR7 derivatives in cancer cell lines Nalm6 and HeLa. IC50 was calculated using GraphPad Prism software from the percentage of viable cells following treatment with the compounds at 48 h. Table 2 showing IC50 of SCR116 and SCR132 in a panel of 16 cancer cell lines.

Series [4] has as its system SUDHL8. The series can be described thus: Cytotoxicity in SUDHL8. In kind it is cell-based. The note with it: Table 2; read-out: IC50 in cancer cell lines, SUDHL8. The method, then:
as §2

The test system of series [5] is Molt4. The series can be described thus: Cytotoxicity in Molt4. Format: cell-based, human. The note with it: Table 2; read-out: IC50 in cancer cell lines, Molt4. The method, then:
as §2

In series [6] the test system is EAC. Description: Cytotoxicity in EAC. Format: cell-based, mice. The note with it: Table 2; read-out: IC50 in cancer cell lines, EAC. Here is the method:
as §2

Series [7] has as its system Raji. Description: Cytotoxicity in Raji. The note with it: Table 2; read-out: IC50 in cancer cell lines, Raji. In kind it is cell-based. Here is the method:
as §2

Series [8] concerns Supt1. The series can be described thus: Cytotoxicity in Supt1. Format: cell-based. The note with it: Table 2; read-out: IC50 in cancer cell lines, Supt1. The method, then:
as §2

Series [9] has as its system Reh. The series can be described thus: Cytotoxicity in Reh. In kind it is cell-based. The note with it: Table 2; 48 h; read-out: IC50 in cancer cell lines, Reh. Here is the method: as §1, §2
The subject of series [10] is LN229. Description: Cytotoxicity in LN229. In kind it is cell-based. The note with it: Table 2; read-out: IC50 in cancer cell lines, LN229. The method, then:
as §2

Series [11] deals with MCF7. The series can be described thus: Cytotoxicity in MCF7. In kind it is cell-based. The note with it: Table 2; read-out: IC50 in cancer cell lines, MCF7. Here is the method:
as §2

Series [12] concerns Molt3. Description: Cytotoxicity in Molt3. The note with it: Table 2; read-out: IC50 in cancer cell lines, Molt3. Format: cell-based. The method, then: as §2
Series [13] deals with Nalm6. Description: Cytotoxicity (viable cells) in Nalm6. Format: cell-based. The note with it: Table 2; read-out: IC50 in cancer cell lines, Nalm6. Here is the method: as §1, §2
For series [14], the system named is Ligase IV knock out (KO) cell line N114. The note with it: Vartak et al. 2018, cited from earlier work.
The subject of series [15] is HCT116. The series can be described thus: Cytotoxicity in HCT116. The note with it: Table 2; read-out: IC50 in cancer cell lines, HCT116. Format: cell-based. The method, then:
as §2

The test system of series [16] is Ligase IV knock out (KO) cell line N114. Description: Cytotoxicity in Ligase IV knock out cell line N114. In kind it is cell-based. The note with it: Table 2, 48 h, read-out: IC50 in cancer cell lines, N114. The method, then: as §2
The test system of series [17] is L1210. Description: Cytotoxicity in L1210. Format: cell-based. The note with it: Table 2; read-out: IC50 in cancer cell lines, L1210. The method, then: as §2
Series [18] has as its target T1, DNA Ligase IV/XRCC4 (Homo sapiens, UniProt P49917).
T1 construct: made in house; host or cells: bacteria
The note with it: 200 μM; background statement; cited from earlier work.

The test system of series [19] is CEM. The series can be described thus: Cytotoxicity in CEM. The note with it: Table 2; read-out: IC50 in cancer cell lines, CEM. In kind it is cell-based. Here is the method: as §2
Series [20] relates to U118. Description: Cytotoxicity in U118. Format: cell-based. The note with it: Table 2; read-out: IC50 in cancer cell lines, U118. The method, then:
as §2

T1 sequence (P49917 whole entry): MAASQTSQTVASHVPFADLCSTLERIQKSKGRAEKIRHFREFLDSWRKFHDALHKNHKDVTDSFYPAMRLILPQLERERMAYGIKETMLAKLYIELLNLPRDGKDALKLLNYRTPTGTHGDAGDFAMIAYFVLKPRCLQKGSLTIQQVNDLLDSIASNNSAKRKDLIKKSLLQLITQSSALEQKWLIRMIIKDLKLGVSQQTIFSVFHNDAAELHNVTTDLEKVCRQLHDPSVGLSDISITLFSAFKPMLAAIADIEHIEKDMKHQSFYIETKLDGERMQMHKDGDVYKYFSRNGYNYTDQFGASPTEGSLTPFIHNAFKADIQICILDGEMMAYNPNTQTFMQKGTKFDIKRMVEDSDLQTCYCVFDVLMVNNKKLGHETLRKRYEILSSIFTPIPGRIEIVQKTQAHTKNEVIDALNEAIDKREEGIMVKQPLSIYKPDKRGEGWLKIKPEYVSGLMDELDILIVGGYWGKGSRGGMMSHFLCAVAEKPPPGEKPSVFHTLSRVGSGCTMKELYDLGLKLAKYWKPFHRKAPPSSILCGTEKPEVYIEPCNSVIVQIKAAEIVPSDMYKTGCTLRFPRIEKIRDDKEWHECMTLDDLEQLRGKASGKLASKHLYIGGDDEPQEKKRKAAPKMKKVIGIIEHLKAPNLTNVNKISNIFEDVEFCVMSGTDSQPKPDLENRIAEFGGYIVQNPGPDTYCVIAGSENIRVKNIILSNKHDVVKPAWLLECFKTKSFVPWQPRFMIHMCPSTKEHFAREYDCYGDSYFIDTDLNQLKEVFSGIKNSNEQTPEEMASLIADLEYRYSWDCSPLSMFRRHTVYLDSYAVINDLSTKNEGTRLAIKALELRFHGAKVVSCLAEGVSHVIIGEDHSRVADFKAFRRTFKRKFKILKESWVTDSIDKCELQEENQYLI
T1 sequence (Q13426 whole entry partner): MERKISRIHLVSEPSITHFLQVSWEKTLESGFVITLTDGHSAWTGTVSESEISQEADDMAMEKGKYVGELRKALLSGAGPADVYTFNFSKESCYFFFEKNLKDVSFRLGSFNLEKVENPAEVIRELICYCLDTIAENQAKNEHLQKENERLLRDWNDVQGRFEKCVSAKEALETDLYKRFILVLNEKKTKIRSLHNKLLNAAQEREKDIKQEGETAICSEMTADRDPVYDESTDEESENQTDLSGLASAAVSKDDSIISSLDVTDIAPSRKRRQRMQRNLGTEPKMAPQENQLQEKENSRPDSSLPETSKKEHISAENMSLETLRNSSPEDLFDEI

For `O=c1[nH]c(=S)[nH]c(N=Cc2ccccc2)c1N=Cc1ccccc1` [SCR7, reference compound], the concentration for half-maximal inhibition (IC50) in series [1] is above 250 µM; in [3], 44 µM; in series [4] it was 100 µM; in series [5], 182 µM; in series [6], 132 µM; in [7] it was above 250 µM. The IC50 in series [8] is 109 µM; in [9], above 250 µM; in series [10] it was 59.9 µM; in series [11] it was 40 µM; in series [12], 79.1 µM; in [13], 50 µM. The IC50 in [14] was above 250 µM; in series [15] it was 302 µM; in series [16], above 250 µM; in series [17], 370 µM; in series [19] it was above 200 µM; in series [20], 151 µM. This compound yielded a t1/2 in series [2] of 1 h. Further, the “Fold increased IC50 in N114” value in series [14] (vs Nalm6) was 5 fold. Moreover, the “Inhibition of DNA Ligase IV” value in [18] is listed as 50%.
